Article PMC6212786 (Nucleic Acids Research, 2018)

Test system: T4 DNA ligase
Test: blunt-end DNA ligation assay, effect on T4 DNA ligase
Assay type: biochemical, bacteriophage T4
Conditions: pH 7.5

In the case of “gp45: T4 sliding clamp, trimeric processivity factor for DNA polymerase”, the “stimulation of blunt-end ligation activity of T4 DNA ligase” value is reported as “did not stimulate”.
